Drawing on patent US20120121540A1 (priority 2007, published 2012), this text covers inhibition for 30 compounds.

The nature of the test: HCV replicon assay (luciferase reporter, ET cell line). It counts as cell-based. Conditions: Hepatitis C virus, HCV replicon luciferase activity in ET cells. In a few lines:
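ET cells carry a stable luciferase-ubiquitin-neo/NS3-5B subgenomic HCV replicon with adaptive mutations. Compounds (0.1 nM to […], 0.5% DMSO) were added 24 h after plating, and luciferase was read 48-72 h later. EC50 came from 10-point 2-fold dilutions fitted to a Hill equation; TC50 was measured in parallel by WST-1.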
In general terms: Replicon systems follow genome replication, usually without infectious particles.
Broadly, the inhibition is how much of the control response was suppressed. Compound `O=C(c1nc2c(C(F)(F)F)cc(-c3ccoc3)cn2c1Cl)N1CC=C(c2ccoc2)C1` [Compound 429, (3-Chloro-6-furan-3-yl-8-trifluoromethyl-imidazo[1,2-a]pyridin-2-yl)-(3-furan-3-yl-2,5-dihydro-pyrrol-1-yl)-methanone] registered an inhibition at 10 µM of 98%.
Take `O=C(c1nc2c(C(F)(F)F)cc(-c3ccoc3)cn2c1Cl)N1CCC(c2nccs2)C1` (stereo not drawn) [Compound 430, (3-Chloro-6-furan-3-yl-8-trifluoromethyl-imidazo[1,2-a]pyridin-2-yl)-(3-thiazol-2-yl-pyrrolidin-1-yl)-methanone]: the inhibition at 10 µM stood at 99.4%.
For the compound `O=C(c1nc2c(C(F)(F)F)cc(-c3ccoc3)cn2c1Cl)N1CCC(C2CCOC2)C1` (stereo not drawn) [Compound 431, (3-Chloro-6-furan-3-yl-8-trifluoromethyl-imidazo[1,2-a]pyridin-2-yl)-[3-(tetrahydro-furan-3-yl)-pyrrolidin-1-yl]-methanone], the inhibition at 10 µM was 95.1%.
In turn, `O=C(c1nc2c(C(F)(F)F)cc(-c3cn[nH]c3)cn2c1Br)N1CCC(c2nccs2)C1` (stereo not drawn) [Compound 432, [3-Bromo-6-(1H-pyrazol-4-yl)-8-trifluoromethyl-imidazo[1,2-a]pyridin-2-yl]-(3-thiazol-2-yl-pyrrolidin-1-yl)-methanone] yielded an inhibition at 10 µM of 96.5%.
In turn, `O=C(c1nc2c(C(F)(F)F)cc(-c3cn[nH]c3)cn2c1Br)N1CC=C(c2nccs2)C1` [Compound 433, [3-Bromo-6-(1H-pyrazol-4-yl)-8-trifluoromethyl-imidazo[1,2-a]pyridin-2-yl]-(3-thiazol-2-yl-2,5-dihydro-pyrrol-1-yl)-methanone] came in with an inhibition at 10 µM of 99.2%.
With `O=C(c1nc2c(C(F)(F)F)cc(-c3cn[nH]c3)cn2c1Br)N1CC=C(c2ccsc2)C1` [Compound 435, [3-Bromo-6-(1H-pyrazol-4-yl)-8-trifluoromethyl-imidazo[1,2-a]pyridin-2-yl]-(3-thiophen-3-yl-2,5-dihydro-pyrrol-1-yl)-methanone], the inhibition at 10 µM is 98.8%.
The same measure for `O=C(c1nc2c(C(F)(F)F)cc(-c3cn[nH]c3)cn2c1Br)N1CC=C(c2ccoc2)C1` [Compound 436, [3-Bromo-6-(1H-pyrazol-4-yl)-8-trifluoromethyl-imidazo[1,2-a]pyridin-2-yl]-(3-furan-3-yl-2,5-dihydro-pyrrol-1-yl)-methanone]: 98%; for `O=C(c1nc2c(C(F)(F)F)cc(-c3cn[nH]c3)cn2c1Br)N1CC=C(c2cccc(F)c2)C1` [Compound 437, [3-Bromo-6-(1H-pyrazol-4-yl)-8-trifluoromethyl-imidazo[1,2-a]pyridin-2-yl]-[3-(3-fluoro-phenyl)-2,5-dihydro-pyrrol-1-yl]-methanone]: 96.9%; for `O=C(c1nc2c(C(F)(F)F)cc(-c3cn[nH]c3)cn2c1Br)N1CC=C(c2ccc(F)cc2)C1` [Compound 438, [3-Bromo-6-(1H-pyrazol-4-yl)-8-trifluoromethyl-imidazo[1,2-a]pyridin-2-yl]-[3-(4-fluoro-phenyl)-2,5-dihydro-pyrrol-1-yl]-methanone]: 97.8%.
Compound `O=C(c1nc2c(C(F)(F)F)cc(-c3cn[nH]c3)cn2c1Cl)N1CC=C(c2nccs2)C1` [Compound 439, [3-Chloro-6-(1H-pyrazol-4-yl)-8-trifluoromethyl-imidazo[1,2-a]pyridin-2-yl]-(3-thiazol-2-yl-2,5-dihydro-pyrrol-1-yl)-methanone] showed an inhibition at 10 µM of 99.2%.
On to `O=C(c1cn2cc(-c3cn[nH]c3)cc(C(F)(F)F)c2n1)N1CC=C(c2nccs2)C1` [Compound 440, [6-(1H-Pyrazol-4-yl)-8-trifluoromethyl-imidazo[1,2-a]pyridin-2-yl]-(3-thiazol-2-yl-2,5-dihydro-pyrrol-1-yl)-methanone], for which testing at 10 µM gave an inhibition of 98.9%.
In the case of `O=C(c1nc2c(C(F)(F)F)cc(-c3cn[nH]c3)cn2c1Cl)N1CCC(c2cccs2)C1` (stereo not drawn) [Compound 441, [3-Chloro-6-(1H-pyrazol-4-yl)-8-trifluoromethyl-imidazo[1,2-a]pyridin-2-yl]-(3-thiophen-2-yl-pyrrolidin-1-yl)-methanone], at 10 µM the inhibition was 97.6%.
Compound `O=C(c1nc2c(C(F)(F)F)cc(-c3cn[nH]c3)cn2c1Br)N1CC=C(c2cccs2)C1` [Compound 442, [3-Bromo-6-(1H-pyrazol-4-yl)-8-trifluoromethyl-imidazo[1,2-a]pyridine-2-yl]-(3-thiophen-2-yl-2.5-dihydro-pyrrol-1-yl)-methanone] registered an inhibition at 10 µM of 99.5%.
`O=C(c1nc2c(C(F)(F)F)cc(-c3cn[nH]c3)cn2c1Cl)N1CC=C(c2cccs2)C1` [Compound 443, [3-Chloro-6-(1H-pyrozol-4-yl)-8-(trifluoromethyl)imidazo[1,2-a]pyridine-2-yl][3-(thiophen-2-yl)-2,5-dihydro-1H-pyrrol-1-yl]methanone] had an inhibition at 10 µM of 99.3%.
Take `O=C(c1nc2c(C(F)(F)F)cc(-c3cn[nH]c3)cn2c1Cl)N1CC=C(c2ccco2)C1` [Compound 444, [3-Chloro-6-(1H-pyrazol-4-yl)-8-(trifluoromethyl)imidazo[1,2-a]pyridin-2-yl][3-(furan-2-yl)-2,5-dihydro-1H-pyrrol-1-yl]methanone]: the inhibition at 10 µM came to 98%.
As for `O=C(c1nc2c(C(F)(F)F)cc(-c3cn[nH]c3)cn2c1Cl)N1CC=C(c2cscn2)C1` [Compound 445, [3-Chloro-6-(1H-pyrazol-4-yl)-8-(trifluoromethyl)imidazol[1,2-a]pyridine-2-yl][3-(1,3-thiazol-4-yl)-2,5-dihydro-1H-pyrrol-1-yl]methanone], the inhibition at 10 µM turned out to be 93.9%.
The same measure for `O=C(c1nc2c(C(F)(F)F)cc(-c3ccoc3)cn2c1Br)N1CCC(c2cccc(F)c2)C1` (stereo not drawn) [Compound 446, (3-Bromo-6-furan-3-yl-8-trifluoromethyl-imidazo[1,2-a]pyridin-2-yl)-(3-(3-fluoro-phenyl)-pyrrolidin-1-yl)-methanone]: 95.8%.
Consider `O=C(c1nc2c(C(F)(F)F)cc(-c3cn[nH]c3)cn2c1Br)N1CCC(c2cccc(F)c2)C1` (stereo not drawn) [Compound 447, (3-Bromo-6-(1H-pyrazol-4-yl)-8-trifluoromethyl-imidazo[1,2-a]pyridin-2-yl)-(3-(3-fluoro-phenyl)-pyrrolidin-1-yl)-methanone], for which the inhibition at 10 µM was found to be 92.8%.
The same measure for `O=C(c1nc2c(C(F)(F)F)cc(-c3ccoc3)cn2c1Br)N1CCC(c2ccccc2F)C1` (stereo not drawn) [Compound 448]: 99.2%.
Take `O=C(c1nc2c(C(F)(F)F)cc(-c3cn[nH]c3)cn2c1Br)N1CCC(c2ccccc2F)C1` (stereo not drawn) [Compound 449, (3-Bromo-6-(1H-pyrazol-4-yl)-8-trifluoromethyl-imidazo[1,2-a]pyridin-2-yl)-(3-(2-fluoro-phenyl)-pyrrolidin-1-yl)-methanone]: the inhibition at 10 µM was found to be 97.4%.
Next, `N#Cc1cccc(C2CCN(C(=O)c3nc4c(C(F)(F)F)cc(-c5ccoc5)cn4c3Cl)C2)c1` (stereo not drawn) [Compound 450, 3-(1-(3-Chloro-6-furan-3-yl-8-trifluoromethyl-imidazo[1,2-a]pyridine-2-carbonyl)-pyrrolidin-3-yl)-benzonitrile]: 82.5%.
The same measure for `COc1cccc(C2CCN(C(=O)c3nc4c(C(F)(F)F)cc(-c5ccoc5)cn4c3Cl)C2)c1` (stereo not drawn) [Compound 451, (3-Chloro-6-furan-3-yl-8-trifluoromethyl-imidaz [1,2-a]pyridin-2-yl)-[3-(3-methoxy-phenyl)-pyrrolidin-1-yl]-methanone]: 73.5%; for `COC(=O)c1cccc(C2CCN(C(=O)c3nc4c(C(F)(F)F)cc(-c5ccoc5)cn4c3Cl)C2)c1` (stereo not drawn) [Compound 452, 3-(1-(3-Chloro-6-furan-3-yl-8-trifluoromethyl-imidazo[1,2-a]pyridine-2-carbonyl)-pyrrolidin-3-yl)-benzoic acid methyl ester]: 87.6%; for `O=C(c1nc2c(C(F)(F)F)cc(-c3ccoc3)cn2c1Cl)N1CCC(c2cccnc2)C1` (stereo not drawn) [Compound 453, (3-Chloro-6-furan-3-yl-8-trifluoromethyl-imidazo[1,2-a]pyridin-2-yl)-(3-pyridin-3-yl-pyrrolidin-1-yl)-methanone]: 97.6%.
`O=C(c1nc2c(C(F)(F)F)cc(-c3ccoc3)cn2c1Cl)N1CCC(c2ccncc2)C1` (stereo not drawn) [Compound 454, (3-Chloro-6-furan-3-yl-8-trifluoromethyl-imidazo[1,2-a]pyridin-2-yl)-(3-pyridin-4-yl-pyrrolidin-1-yl)-methanone] returned an inhibition at 10 µM of 96.1%.
The compound `O=C(c1nc2c(C(F)(F)F)cc(-c3ccoc3)cn2c1Cl)N1CCC(c2cccc(Cl)c2)C1` (stereo not drawn) [Compound 460, (3-Chloro-6-furan-3-yl-8-trifluoromethyl-imidazo[1,2-a]pyridin-2-yl)-[3-(3-chloro-phenyl)-pyrrolidin-1-yl]-methanone] displayed an inhibition at 10 µM of 88%.
As for `O=C(c1nc2c(C(F)(F)F)cc(-c3cn[nH]c3)cn2c1Br)N1CCC(c2ccccc2)C1` (stereo not drawn) [Compound 461, (3-Bromo-6-(1H-pyrazol-4-yl)-8-trifluoromethyl-imidazo[1,2-a]pyridin-2-yl)-(3-phenyl-pyrrolidin-1-yl)-methanone], the inhibition at 10 µM stood at 94.3%.
`Nc1cccc(C2CCN(C(=O)c3nc4c(C(F)(F)F)cc(-c5ccoc5)cn4c3Cl)C2)c1` (stereo not drawn) [Compound 462, [3-(3-Amino-phenyl)-pyrrolidin-1-yl]-(3-chloro-6-furan-3-yl-8-trifluoromethyl-imidaz [1,2-a]pyridin-2-yl)-methanone]: at 10 µM the inhibition was 86.5%.
As to `COc1ccccc1C1CCN(C(=O)c2nc3c(C(F)(F)F)cc(-c4ccoc4)cn3c2Cl)C1` (stereo not drawn) [Compound 463, (3-Chloro-6-furan-3-yl-8-trifluoromethyl-imidaz [1,2-a]pyridin-2-yl)-[3-(2-methoxy-phenyl)-pyrrolidin-1-yl]-methanone], the inhibition at 10 µM came out at 80.6%.
In turn, `O=C(c1nc2c(C(F)(F)F)cc(-c3cn[nH]c3)cn2c1Cl)N1CCC(c2ccccc2)C1` (stereo not drawn) [Compound 464, [3-Chloro-6-(1H-pyrazol-4-yl)-8-trifluoromethyl-imidazo[1,2-a]pyridin-2-yl]-(3-phenyl-pyrrolidin-1-yl)-methanone] displayed an inhibition at 10 µM of 93.7%.
